From US7771931B2, “Methods for diagnosing and treating diseases and conditions associated with protein kinase Cλ” (The General Hospital Corporation, priority 2001, dated 2010)

Legend:
PKCλ = experiment: Antisense morpholino injection into zebrafish embryos; format: in vivo; conditions: injected into 1-4 cell embryos
Protocol: An antisense morpholino oligonucleotide of sequence 5′-[…]-3′ (SEQ ID NO:6) (GeneTools, LLC) was dissolved at a concentration of […] in 1× Danieau's buffer (5 mM Hepes pH 7.6, 58 mM NaCl, 0.7 mM KCl, 0.6 mM Ca (NO3)2, 0.4 mM MgSO4). One nL of this solution or 1× Danieau's buffer was injected into each 1-4 cell embryo before allowing the embryos to develop at 28.50° C.

yeast = experiment: Rate of proliferation of yeast; format: cell-based
mammalian cells = experiment: Bromodeoxyuridine incorporation in mammalian cells; format: cell-based
zebrafish embryos [1] = experiment: Retina histology of treated zebrafish embryos (hematoxylin-eosin, dapi); format: in vivo; conditions: concentramide-treated embryos
Source text: (§1) Fixed embryos were dehydrated, embedded in plastic (JB4, Polysciences, Inc.), and sectioned at 2-7 μm. Retinal sections were stained with hematoxylin-eosin or dapi.

zebrafish embryos [2] = experiment: Kidney epithelium of treated zebrafish embryos (apical marker 3G8); format: in vivo; conditions: embryos exposed to concentramide
Protocol: (§2) Digoxigenin-labeled antisense RNA probes were generated by ill vitro transcription for cmlc2 (Yelon et al., supra), vmhc (Yelon et al., supra), and pax2.1 (Krauss et al., Development 113:1193-1206, 1991). In situ hybridization was carried out as described (Oxtoby et al., Nucleic Acids Res. 21:1087-1095, 1993). For whole-mount immunohistochemistry, embryos were fixed in 4% paraformaldehyde in phosphate-buffered saline (S46 and 3G8) or 80% methanol, 20% dimethyl sulfoxide (α-ZO-1), permeablized in acetone for 30 minutes at −20° C. (3G8), blocked with 5% fetal bovine serum, and incubated with the antibodies S46, 3G8 (Vize et al., Dev. Biol. 171:531-540, 1995), or α-ZO-1. An anti-mouse-horseradish peroxidase conjugate was used as secondary antibody for S46 and 3G8, and an Alexa 488-labeled anti-mouse secondary antibody was used for α-ZO-1 staining.
as §1

C. elegans embryo = experiment: Early development of the C. elegans embryo (par-2::GFP strain KK871); format: in vivo; conditions: 34 μM concentramide
Protocol: C. eleganis strain KK871 (par-2::GFP) was maintained at 25° C. For each sample, 10-15 adult worms were soaked in 80 μL M9 medium containing 34 μM concentramide, 0.25% dimethyl sulfoxide for 30-60 minutes. Worms were then cut open with a scalpel, and embryos were mounted on 2% agarose pads with coverslips. Embryos were allowed to develop at 25° C. before being photographed live.

zebrafish embryos [3] = experiment: Anterior-posterior patterning by in situ hybridization (Pax2.1, cmlc2), 18-somite zebrafish embryos; format: in vivo
Protocol: as §2

zebrafish embryos [4] = experiment: Fusion order of heart primordia (cmlc2 expression, 16- and 18-somite stages); format: in vivo
Protocol: as §2

zebrafish embryos [5] = experiment: Small molecule treatment of developing zebrafish embryos, visual inspection of heart patterning
Source text: Visual inspection of the transparent embryos was used to identify small molecules that affect the global patterning of the heart.

## 5′-CTGTCCCGCAGCGTGGGCATTATGG-3′ (all phosphorodiamidate morpholino (PMO)) [antisense morpholino oligomers]
PKCλ
  phenotype of injected embryos compared with has mutation: phenocopy the mutation entirely

## CCCCCc1ccc(-c2ccc(/C=C/C(N)=O)cc2)nc1 [concentramide]
yeast
  effect on rate of proliferation of yeast: no effect
Mammalian cells
  effect on bromodeoxyuridine incorporation: no effect
Zebrafish embryos [1]
  defects in cell polarity, RPE continuity, or lamination of the retina: do not exhibit defects
Zebrafish embryos [2]
  irregular epithelial cell shapes and gaps between cells in the kidney: did not observe these defects
C. elegans embryo
  Par2 localization: retain proper localization of Par2 to the posterior pole
  asymmetry of first cell division: normally asymmetric first cell division
  completion of development: fail to complete development
  cytokinesis: cytolinetic defects
Zebrafish embryos [3]; 18-somite embryos
  distance between Pax2.1-expressing cells in the eyes and at the midbrain/hindbrain boundary: reduced
Zebrafish embryos [3]; 18-somite stage, n=12, wild-type 3.1+/−0.2
  distance between the anterior edge of the cmlc2-expressing field and the anterior extreme of the embryo: 2.2+/−0.3 arbitrary units
Zebrafish embryos [4]
  fusion of posterior ends of the heart field: failure to merge the posterior ends
Zebrafish embryos [5]; 6 μM versus 6 nM
  phenotype at 6 μM compared with 6 nM: virtually the same phenotype
Zebrafish embryos [5]; concentramide-treated embryos
  brain development: develop abnormally
Zebrafish embryos [5]; embryos exposed to concentramide
  heart phenotype of exposed embryos: compact hearts that do not sustain a circulation
Zebrafish embryos [5]; general cytotoxicity
  cell death: no increase in cell death is apparent
  development relative to untreated siblings: not delayed
Zebrafish embryos [5]; more precise staging, approximately 15 hpf
  stage before which concentramide must be present to induce the concentric chamber morphology: < 14 somite stage
Zebrafish embryos [5]; same phenotype at 6 μM and 6 nM
  potency on specific molecular target versus other proteins affecting visible developmental processes: at least 1,000 times
Zebrafish embryos [5]; treated after 17 hpf
  heart morphology at 24 hpf: wild-type heart morphology
Zebrafish embryos [5]; treated at any time prior to 14 hpf
  heart morphology at 24 hpf: concentric chamber morphology
Zebrafish embryos [5]; treated between 9 and 14 hpf, concentric heart chamber phenotype preserved
  brain and heart phenotype with timed treatment: eliminates this brain defect
